According to ChEMBL document CHEMBL1148473, “Sabadinine: a potential non-peptide anti-severe acute-respiratory-syndrome agent identified using structure-aided design” (J Med Chem, 2004):
Activity calls are given as the source filed them. No cut-off for these calls is given here.

Experiments:
Homo sapiens = organism: Homo sapiens; assay: Compound was tested for inhibition of a proteinase 3CL pro of human coronavirus; Inhibited
[1] = tested on: Murine hepatitis virus strain A59; assay: Evaluated for cellular toxicity against mouse hepatitis virus strain A59 up to 100 uM, Not toxic; type: functional, organism-based
Coronaviridae = assay: Evaluated for effect on murine coronavirus replication; No effect; type: functional, organism-based

CC1CCC2N(C1)CC1[C@](O)(C(O)C[C@@]3(O)C4CCC5C6(O)OC4(C[C@@]13O)C5(C)CCC6O)[C@]2(C)O (stereo partly drawn)
Activity (Homo sapiens): Inhibited | Activity [1]: Not toxic | Activity (Coronaviridae): inactive
